In PubChem BioAssay AID1259407 (Chemical Carcinogenesis Research Information System (CCRIS), 2018):
Calls of active or inactive are those of the source. How the calls were made is not given here.

System: CCRIS mutagenicity, Ames/micronucleus/aberration tests
Assay: CCRIS mutagenicity studies
[1] = Test System: AMES SALMONELLA TYPHIMURIUM, Strain/Indicator: TA98, Metabolic Activation: NONE, Method: PREINCUBATION
[2] = Test System: AMES SALMONELLA TYPHIMURIUM, Strain/Indicator: TA100, Metabolic Activation: NONE, Method: PREINCUBATION
[3] = Test System: AMES SALMONELLA TYPHIMURIUM, Strain/Indicator: TA1535, Metabolic Activation: NONE, Method: PREINCUBATION

NC(=O)N(CCBr)N=O
mutagenic call (Test System: E. COLI B, Strain/Indicator: H/R30R, Metabolic Activation: NONE): active; positive
mutagenic call (Test System: E. COLI B, Strain/Indicator: HS30R, Metabolic Activation: NONE): active; positive

CCCCCCCCCC[N+](C)(C)Cc1ccccc1
mutagenic call (Test System: AMES SALMONELLA TYPHIMURIUM, Strain/Indicator: TA97, Metabolic Activation: HAMSTER, LIVER, S-9, AROCLOR 1254 (10 OR 30%), Method: PREINCUBATION): inactive; negative
mutagenic call (Test System: AMES SALMONELLA TYPHIMURIUM, Strain/Indicator: TA97, Metabolic Activation: NONE, Method: PREINCUBATION): inactive; negative
mutagenic call (Test System: AMES SALMONELLA TYPHIMURIUM, Strain/Indicator: TA97, Metabolic Activation: RAT, LIVER, S-9, AROCLOR 1254 (10 OR 30%), Method: PREINCUBATION): inactive; negative
mutagenic call (Test System: AMES SALMONELLA TYPHIMURIUM, Strain/Indicator: TA98, Metabolic Activation: HAMSTER, LIVER, S-9, AROCLOR 1254 (10 OR 30%), Method: PREINCUBATION): inactive; negative
mutagenic call [1]: inactive; negative
mutagenic call (Test System: AMES SALMONELLA TYPHIMURIUM, Strain/Indicator: TA98, Metabolic Activation: RAT, LIVER, S-9, AROCLOR 1254 (10 OR 30%), Method: PREINCUBATION): inactive; negative
mutagenic call (Test System: AMES SALMONELLA TYPHIMURIUM, Strain/Indicator: TA100, Metabolic Activation: HAMSTER, LIVER, S-9, AROCLOR 1254 (10 OR 30%), Method: PREINCUBATION): inactive; negative
mutagenic call [2]: inactive; negative
mutagenic call (Test System: AMES SALMONELLA TYPHIMURIUM, Strain/Indicator: TA100, Metabolic Activation: RAT, LIVER, S-9, AROCLOR 1254 (10 OR 30%), Method: PREINCUBATION): inactive; negative
mutagenic call (Test System: AMES SALMONELLA TYPHIMURIUM, Strain/Indicator: TA1535, Metabolic Activation: HAMSTER, LIVER, S-9, AROCLOR 1254 (10 OR 30%), Method: PREINCUBATION): inactive; negative
mutagenic call [3]: inactive; negative
mutagenic call (Test System: AMES SALMONELLA TYPHIMURIUM, Strain/Indicator: TA1535, Metabolic Activation: RAT, LIVER, S-9, AROCLOR 1254 (10 OR 30%), Method: PREINCUBATION): inactive; negative

C=CCNCC=C
mutagenic call (Test System: AMES SALMONELLA TYPHIMURIUM, Strain/Indicator: TA98, Metabolic Activation: HAMSTER, LIVER, S-9, AROCLOR 1254 (10%), Method: PREINCUBATION): inactive; negative
mutagenic call [1]: inactive; negative
mutagenic call (Test System: AMES SALMONELLA TYPHIMURIUM, Strain/Indicator: TA98, Metabolic Activation: RAT, LIVER, S-9, AROCLOR 1254 (10%), Method: PREINCUBATION): inactive; negative
mutagenic call (Test System: AMES SALMONELLA TYPHIMURIUM, Strain/Indicator: TA100, Metabolic Activation: HAMSTER, LIVER, S-9, AROCLOR 1254 (10%), Method: PREINCUBATION): inactive; negative
mutagenic call [2]: inactive; negative
mutagenic call (Test System: AMES SALMONELLA TYPHIMURIUM, Strain/Indicator: TA100, Metabolic Activation: RAT, LIVER, S-9, AROCLOR 1254 (10%), Method: PREINCUBATION): inactive; negative
mutagenic call (Test System: AMES SALMONELLA TYPHIMURIUM, Strain/Indicator: TA1535, Metabolic Activation: HAMSTER, LIVER, S-9, AROCLOR 1254 (10%), Method: PREINCUBATION): inactive; negative
mutagenic call [3]: inactive; negative
mutagenic call (Test System: AMES SALMONELLA TYPHIMURIUM, Strain/Indicator: TA1535, Metabolic Activation: RAT, LIVER, S-9, AROCLOR 1254 (10%), Method: PREINCUBATION): inactive; negative
mutagenic call (Test System: AMES SALMONELLA TYPHIMURIUM, Strain/Indicator: TA1537, Metabolic Activation: HAMSTER, LIVER, S-9, AROCLOR 1254 (10%), Method: PREINCUBATION): inactive; negative
mutagenic call (Test System: AMES SALMONELLA TYPHIMURIUM, Strain/Indicator: TA1537, Metabolic Activation: NONE, Method: PREINCUBATION): inactive; negative
mutagenic call (Test System: AMES SALMONELLA TYPHIMURIUM, Strain/Indicator: TA1537, Metabolic Activation: RAT, LIVER, S-9, AROCLOR 1254 (10%), Method: PREINCUBATION): inactive; negative

Clc1ccc(C(c2ccccc2Cl)C(Cl)Cl)cc1 (stereo unspecified)
mutagenic call (End Point: IN VITRO CHROMOSOMAL ABERRATIONS, Test System: CHINESE HAMSTER OVARY CELLS, Metabolic Activation: NONE): inactive; negative
mutagenic call (End Point: IN VITRO CHROMOSOMAL ABERRATIONS, Test System: CHINESE HAMSTER OVARY CELLS, Metabolic Activation: RAT, LIVER, S-9, AROCLOR 1254): inactive; negative
mutagenic call (Test System: AMES SALMONELLA TYPHIMURIUM, Strain/Indicator: TA98, Metabolic Activation: MOUSE, LIVER, S-9, Method: STANDARD PLATE): inactive; negative
mutagenic call (Test System: AMES SALMONELLA TYPHIMURIUM, Strain/Indicator: TA98, Metabolic Activation: NONE, Method: STANDARD PLATE): inactive; negative
mutagenic call (Test System: AMES SALMONELLA TYPHIMURIUM, Strain/Indicator: TA98, Metabolic Activation: RAT, LIVER, S-9, Method: STANDARD PLATE): inactive; negative
mutagenic call (Test System: AMES SALMONELLA TYPHIMURIUM, Strain/Indicator: TA100, Metabolic Activation: MOUSE, LUNG, S-9, Method: STANDARD PLATE): inactive; negative
mutagenic call (Test System: AMES SALMONELLA TYPHIMURIUM, Strain/Indicator: TA100, Metabolic Activation: NONE, Method: STANDARD PLATE): inactive; negative
mutagenic call (Test System: AMES SALMONELLA TYPHIMURIUM, Strain/Indicator: TA100, Metabolic Activation: RAT, LIVER, S-9, Method: STANDARD PLATE): inactive; negative
mutagenic call (Test System: UDS RODENT HEPATOCYTES, Strain/Indicator: THY INCORP (NON-S-PHASE), Metabolic Activation: NONE, Method: LIQUID SCINTILLATION COUNTING): inactive; negative
mutagenic call (Test System: UDS RODENT LUNG CELLS, Strain/Indicator: THY INCORP (NON-S-PHASE), Metabolic Activation: NONE, Method: LIQUID SCINTILLATION COUNTING): active; positive
